Legend:
[1] = target: T1, Polyunsaturated fatty acid lipoxygenase ALOX15 (Oryctolagus cuniculus, UniProt P12530); assay: biochemical; assay type: tissue-based, Reticulocytes;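 also: inhibition of 15-lipoxygenase enzyme activity measured with linoleic acid as the substrate; in other assays of this panel Not Active means under 50% inhibition at 10 µM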
T1 sequence (P12530 whole entry): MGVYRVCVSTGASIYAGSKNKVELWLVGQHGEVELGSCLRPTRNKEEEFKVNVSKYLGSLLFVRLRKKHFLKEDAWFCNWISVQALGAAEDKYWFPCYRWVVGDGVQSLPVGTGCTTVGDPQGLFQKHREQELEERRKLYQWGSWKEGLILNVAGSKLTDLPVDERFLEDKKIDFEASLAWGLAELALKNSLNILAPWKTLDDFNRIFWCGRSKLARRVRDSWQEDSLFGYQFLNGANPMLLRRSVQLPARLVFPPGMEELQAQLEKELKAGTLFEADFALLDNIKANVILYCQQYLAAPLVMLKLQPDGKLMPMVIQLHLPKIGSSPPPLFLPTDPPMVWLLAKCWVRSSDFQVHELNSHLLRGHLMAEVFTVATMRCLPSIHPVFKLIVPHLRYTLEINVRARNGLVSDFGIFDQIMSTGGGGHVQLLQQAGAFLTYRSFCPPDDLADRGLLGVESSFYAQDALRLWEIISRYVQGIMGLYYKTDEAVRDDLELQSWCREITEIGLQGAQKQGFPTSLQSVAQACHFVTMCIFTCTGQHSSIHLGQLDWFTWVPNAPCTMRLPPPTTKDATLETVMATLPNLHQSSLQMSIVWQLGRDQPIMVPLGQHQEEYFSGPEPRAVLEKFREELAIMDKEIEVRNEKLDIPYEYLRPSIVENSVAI

[2] = target: T2, C-C chemokine receptor type 4 (Homo sapiens, UniProt P51679); assay type: cell membranes, Membrane; conditions: chem-1; also: in other assays of this panel Not Active means under 50% inhibition at 10 µM
T2 sequence (P51679 whole entry): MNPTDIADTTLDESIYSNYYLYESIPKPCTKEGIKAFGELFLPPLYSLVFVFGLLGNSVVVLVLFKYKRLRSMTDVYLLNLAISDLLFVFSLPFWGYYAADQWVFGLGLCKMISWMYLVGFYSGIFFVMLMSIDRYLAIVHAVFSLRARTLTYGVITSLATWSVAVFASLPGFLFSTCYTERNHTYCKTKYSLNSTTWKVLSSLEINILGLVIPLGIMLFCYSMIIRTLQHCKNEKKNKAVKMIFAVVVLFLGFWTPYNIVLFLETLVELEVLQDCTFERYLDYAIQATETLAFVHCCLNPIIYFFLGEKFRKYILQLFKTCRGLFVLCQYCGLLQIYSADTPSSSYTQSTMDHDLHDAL

D(1A) dopamine receptor = D(1A) dopamine receptor (Homo sapiens, UniProt P21728); assay: DRUGMATRIX: Dopamine D1 radioligand binding (ligand: [3H] SCH-23390); assay type: cell membranes, CHO, Membrane; conditions: cho; Not Active = under 50% inhibition at 10 µM
Chain of D(1A) dopamine receptor (P21728 whole entry): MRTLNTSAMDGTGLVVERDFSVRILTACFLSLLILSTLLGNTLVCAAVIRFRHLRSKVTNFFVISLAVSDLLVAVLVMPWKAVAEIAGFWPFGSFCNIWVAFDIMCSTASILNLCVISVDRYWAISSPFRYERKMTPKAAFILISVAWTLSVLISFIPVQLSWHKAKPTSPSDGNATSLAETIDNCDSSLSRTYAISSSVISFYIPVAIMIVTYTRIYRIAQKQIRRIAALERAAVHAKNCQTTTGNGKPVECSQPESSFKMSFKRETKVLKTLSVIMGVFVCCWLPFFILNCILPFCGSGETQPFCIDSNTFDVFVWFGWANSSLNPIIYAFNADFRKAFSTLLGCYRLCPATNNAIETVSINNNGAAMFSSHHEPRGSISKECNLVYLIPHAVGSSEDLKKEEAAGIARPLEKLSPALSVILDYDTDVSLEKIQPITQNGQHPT

Adenosine receptor A1 = target: T3, Adenosine receptor A1 (Homo sapiens, UniProt P30542); assay type: cell membranes, CHO, Membrane;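 also: radioligand binding assay at the adenosine A1 receptor, with DPCPX serving as the labelled ligand; in other assays of this panel Not Active means under 50% inhibition at 10 µM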
T3 sequence (P30542 whole entry): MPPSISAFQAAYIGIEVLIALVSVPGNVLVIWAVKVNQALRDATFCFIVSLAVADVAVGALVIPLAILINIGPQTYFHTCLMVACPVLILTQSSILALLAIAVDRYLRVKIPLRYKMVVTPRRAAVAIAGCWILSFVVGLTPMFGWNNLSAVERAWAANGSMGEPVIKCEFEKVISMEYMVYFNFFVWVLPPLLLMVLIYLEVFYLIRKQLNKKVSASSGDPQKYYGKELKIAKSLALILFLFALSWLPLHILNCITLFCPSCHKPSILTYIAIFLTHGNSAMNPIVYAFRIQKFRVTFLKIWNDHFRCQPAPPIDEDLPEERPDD

[3] = DRUGMATRIX: Sodium/nucleoside co-transporter radioligand binding (ligand: nitrobenzylthioinosine); assay type: cell membranes, Cavia porcellus, Dunkin-Hartley, Cerebral cortex, Membrane; conditions: Not Active = under 50% inhibition at 10 µM
Mu-type opioid receptor = Mu-type opioid receptor (Homo sapiens, UniProt P35372); assay: DRUGMATRIX: Opiate mu (OP3, MOP) radioligand binding (ligand: [3H] Diprenorphine); assay type: cell membranes, CHO-K1, Membrane; conditions: cho-k1; Not Active = under 50% inhibition at 10 µM
Chain of Mu-type opioid receptor (P35372 whole entry): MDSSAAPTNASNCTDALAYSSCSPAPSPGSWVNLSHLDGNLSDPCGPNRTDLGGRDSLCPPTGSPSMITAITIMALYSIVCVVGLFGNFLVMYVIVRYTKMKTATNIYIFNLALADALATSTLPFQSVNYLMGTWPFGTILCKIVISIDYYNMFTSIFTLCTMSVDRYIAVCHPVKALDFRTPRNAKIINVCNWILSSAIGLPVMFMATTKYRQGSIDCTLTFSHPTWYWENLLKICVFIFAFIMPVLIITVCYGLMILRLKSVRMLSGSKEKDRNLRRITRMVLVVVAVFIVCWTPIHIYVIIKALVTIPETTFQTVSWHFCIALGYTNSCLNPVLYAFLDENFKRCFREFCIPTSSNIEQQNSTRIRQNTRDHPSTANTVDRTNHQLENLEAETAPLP

C#C[C@]1(O)CC[C@H]2[C@@H]3CCC4=CC(=O)CC[C@]4(C)[C@H]3CC[C@@]21C [ETHISTERONE]
IC50 ([1]; reticulocytes): Not Active
IC50 [2]: Not Active
IC50 (D(1A) dopamine receptor): Not Active
IC50 (Adenosine receptor A1; cho): Not Active
IC50 [3]: Not Active
Ki [3]: Not Active
IC50 (Mu-type opioid receptor): Not Active

CC(O)(P(=O)(O)O)P(=O)(O)O [ETIDRONIC ACID]
IC50 ([1]; reticulocytes): Not Active
IC50 [2]: Not Active
IC50 (D(1A) dopamine receptor): Not Active
IC50 (Adenosine receptor A1; cho): Not Active
IC50 [3]: Not Active
Ki [3]: Not Active
IC50 (Mu-type opioid receptor): Not Active

CC(C)(C(=O)O)c1ccc(C(O)CCCN2CCC(C(O)(c3ccccc3)c3ccccc3)CC2)cc1 (centres undefined) [FEXOFENADINE]
IC50 ([1]; reticulocytes): Not Active
IC50 [2]: Not Active
IC50 (D(1A) dopamine receptor): Not Active
IC50 (Adenosine receptor A1; cho): Not Active
IC50 [3]: Not Active
Ki [3]: Not Active
IC50 (Mu-type opioid receptor): Not Active

CN1CCN(c2c(F)cc3c(=O)c(C(=O)O)cn(CCF)c3c2F)CC1 [FLEROXACIN]
IC50 ([1]; reticulocytes): Not Active
IC50 [2]: Not Active
IC50 (D(1A) dopamine receptor): Not Active
IC50 (Adenosine receptor A1; cho): Not Active
IC50 [3]: Not Active
Ki [3]: Not Active
IC50 (Mu-type opioid receptor): Not Active

O=c1[nH]c(=O)n([C@H]2C[C@H](O)[C@@H](CO)O2)cc1F [FLOXURIDINE]
IC50 ([1]; reticulocytes): Not Active
IC50 [2]: Not Active
IC50 (D(1A) dopamine receptor): Not Active
IC50 (Adenosine receptor A1; cho): Not Active
IC50 [3]: Not Active
Ki [3]: Not Active
IC50 (Mu-type opioid receptor): Not Active

COC(=O)Nc1nc2cc(C(=O)c3ccc(F)cc3)ccc2[nH]1 [FLUBENDAZOLE]
IC50 ([1]; reticulocytes): Not Active
IC50 [2]: Not Active
IC50 (D(1A) dopamine receptor): Not Active
IC50 (Adenosine receptor A1; cho): Not Active
IC50 [3]: Not Active
Ki [3]: Not Active
IC50 (Mu-type opioid receptor): Not Active

CC(=O)OCC(=O)[C@@]1(O)CC[C@H]2[C@@H]3CCC4=CC(=O)CC[C@]4(C)[C@@]3(F)[C@@H](O)C[C@@]21C [FLUDROCORTISONE ACETATE]
IC50 ([1]; reticulocytes): Not Active
IC50 [2]: Not Active
IC50 (D(1A) dopamine receptor): Not Active
IC50 (Adenosine receptor A1; cho): Not Active
IC50 [3]: Not Active
Ki [3]: Not Active
IC50 (Mu-type opioid receptor): Not Active

CCOC(=O)c1ncn2c1CN(C)C(=O)c1cc(F)ccc1-2 [FLUMAZENIL]
IC50 ([1]; reticulocytes): Not Active
IC50 [2]: Not Active
IC50 (D(1A) dopamine receptor): Not Active
IC50 (Adenosine receptor A1; cho): Not Active
IC50 [3]: Not Active
Ki [3]: Not Active
IC50 (Mu-type opioid receptor): Not Active

CC(=O)OCC(=O)[C@@]12OC(C)(C)O[C@@H]1C[C@H]1[C@@H]3C[C@H](F)C4=CC(=O)C=C[C@]4(C)[C@@]3(F)[C@@H](O)C[C@@]12C [FLUOCINONIDE]
IC50 ([1]; reticulocytes): Not Active
IC50 [2]: Not Active
IC50 (D(1A) dopamine receptor): Not Active
IC50 (Adenosine receptor A1; cho): Not Active
IC50 [3]: Not Active
Ki [3]: Not Active
IC50 (Mu-type opioid receptor): Not Active

O=C(O)P(=O)(O)O [FOSCARNET]
IC50 ([1]; reticulocytes): Not Active
IC50 [2]: Not Active
IC50 (D(1A) dopamine receptor): Not Active
IC50 (Adenosine receptor A1; cho): Not Active
IC50 [3]: Not Active
Ki [3]: Not Active
IC50 (Mu-type opioid receptor): Not Active

Cc1ccc(C)c(OCCCC(C)(C)C(=O)O)c1 [GEMFIBROZIL]
IC50 ([1]; reticulocytes): Not Active
IC50 [2]: Not Active
IC50 (D(1A) dopamine receptor): Not Active
IC50 (Adenosine receptor A1; cho): Not Active
IC50 [3]: Not Active
Ki [3]: Not Active
IC50 (Mu-type opioid receptor): Not Active

O=c1c(-c2ccc(O)cc2)coc2cc(O)cc(O)c12 [GENISTEIN]
IC50 ([1]; read-out: IC50): 9.03 µM
IC50 [2]: Not Active
IC50 (D(1A) dopamine receptor): Not Active
IC50 (Adenosine receptor A1; read-out: IC50): 19.9 µM
Ki (Adenosine receptor A1; read-out: Ki): 11.6 µM
IC50 [3]: Not Active
Ki [3]: Not Active
IC50 (Mu-type opioid receptor): Not Active

CCC1=C(C)CN(C(=O)NCCc2ccc(S(=O)(=O)NC(=O)N[C@H]3CC[C@H](C)CC3)cc2)C1=O [GLIMEPIRIDE]
IC50 ([1]; reticulocytes): Not Active
IC50 [2]: Not Active
IC50 (D(1A) dopamine receptor): Not Active
IC50 (Adenosine receptor A1; cho): Not Active
IC50 [3]: Not Active
Ki [3]: Not Active
IC50 (Mu-type opioid receptor): Not Active

Nc1cc(-c2ccncc2)c[nH]c1=O [INAMRINONE]
IC50 ([1]; reticulocytes): Not Active
IC50 [2]: Not Active
IC50 (D(1A) dopamine receptor): Not Active
IC50 (Adenosine receptor A1; cho): Not Active
IC50 [3]: Not Active
Ki [3]: Not Active
IC50 (Mu-type opioid receptor): Not Active
